Data as given in patent US20160089464A1, “MALODOR REDUCTION COMPOSITIONS” (The Procter & Gamble Company, priority 2014, published 2016).

Experiment: Comment Code material properties: vapor pressure, ClogP, probability of ingredient color instability, odor detection threshold, melamine formaldehyde PMC headspace response ratio and leakage, liquid dish neat product liquid-air partition coefficient
Assay type: physicochemical
Conditions: Table 1 materials; each letter of the code is one property class (vapor pressure, ClogP, color instability, odor detection threshold, PMC headspace ratio, PMC leakage, liquid dish liquid-air partition coefficient)

Structure (SMILES) | Comment Code
C=CCCCCCCCCC(=O)OCCCC [Material 599] | DEFHJK
CC1C(C)(C)C2CCC3CC(C)(C)OC3C2C1(C)C (stereo not drawn) [Material 679] | ADEFHJK
C=CC(=C)CCC=C(C)CCC=C(C)C [Material 628] | DEFHJK
CCC(O)COC1CCCCC1C(C)(C)C (stereo not drawn) [Material 677] | DEFHJK
CC(=O)OC1CC2CCC1(C)C2(C)C (stereo not drawn) [Material 604] | ADEFHIJKL
COC(Cc1ccccc1)OC [Material 627] | DHJK
C=C(C)C1CCC(C)(O)CC1 (stereo not drawn) [Material 612] | BCGIJK
O=C1CCCCCCCCCCOCCCCO1 [Material 562] | DGJ
CCC(=O)OC(C)(C)C1CC=C(C)CC1 (stereo not drawn) [Material 686] | BDEFHJK
C=C(C)C1CC=C(C=O)CC1 (stereo not drawn) [Material 946] | ACHIJK
C=C(C)C1CCC2(C)CCC=C(C)C2C1 (stereo not drawn) [Material 692] | BDEFHJK
CC(C)CCc1ccc2c(c1)OCC(=O)CO2 [Material 658] | DHJ
CC1C(C)(C)C2=C(C(=O)CCC2)C1(C)C (stereo not drawn) [Material 572] | BDEFHIJK

The remaining lines, values ahead:

Comment Code | Structure (SMILES)
BCEFHIK | Cc1cccc(CCO)c1 [Material 928]
DFHIJK | CC1CCC2(O1)C(C)(C)CCCC2(C)O (stereo not drawn) [Material 893]
DFHJKL | CCCCCC=C1CCCC1=O [Material 850]
DEFHJK | C[C@@H]1CCC=C2CC[C@@H](C(C)(C)O)C[C@]21C [Material 1107]
BCEFGIK | OCCc1ccccc1 [Material 955]
DEFHJK | CC(C)=CCCC(C)c1ccc(C)cc1 (stereo not drawn) [Material 713]
DEFHJK | CC1=CC[C@@H]2[C@@]3(C)CCCC(C)(C)[C@@H]3CC[C@@]2(C)O1 [Material 1029]
DEFHJK | C=CC(C)=CCC=C(C)CCC=C(C)C [Material 710]
DEFHJK | CC1=CC[C@@H]2C3CC([C@@H]2C1)[C@@]1(C3)OC1C (stereo partly drawn) [Material 1007]
BCEFHIK | C=CCCC(=O)c1ccccc1 [Material 792]
BDEFHJK | C=C(C)[C@@H]1CCC2=CCC[C@@H](C)[C@]2(C)C1 [Material 1105]
BDEFGIKL | CCCCCCCC(C)O (stereo not drawn) [Material 839]
BDFHJK | CC(C)(C=O)CC1=CCC2CC1C2(C)C (stereo not drawn) [Material 925]
ADHKL | CCCCCCC/C=C/C=O [Material 1067]
BCGIJK | CC(C)C1=CCC(C)(O)CC1 (stereo not drawn) [Material 982]
ACFHIJKL | CC1(C)C2CC=C(CC=O)C1C2 (stereo not drawn) [Material 973]
BDEFHJK | C=CCOC(=O)CCC1CCCCC1 [Material 746]
CEFHK | CCCC(O)Cc1ccccc1 (stereo not drawn) [Material 730]

Comment Code | Structure (SMILES)
DEFHJK | CC(C)(C)C(=O)OC1CC2CC1C1CC=CC21 (stereo not drawn) [Material 978]
BDFHJK | CC(C)=CCCC(C)CCCC(C)C=O (stereo not drawn) [Material 757]
ADEFHJKL | CCC=CCCOC(=O)CC(C)C [Material 814]
BDEFHIJKL | CC1CCC(C(C)(C)S)C(=O)C1 (stereo not drawn) [Material 1059]
DEFHJK | C/C(=C/C#N)CCc1ccccc1 [Material 892]
ACHKL | CC/C=C/CC/C=C/C=O [Material 829]
ACEFHJKL | CC(C)OCCc1ccccc1 [Material 950]
DEFHJK | CC(=O)OC(C)CC/C=C(\C)CCC=C(C)C (stereo not drawn) [Material 890]
DEFGJK | CCCCCCCCCCCCCO [Material 1090]
DEFGJK | O=C1CCCC=CCCCCCCCCCC1 [Material 788]
BDEFHJKL | CC(C)=CCCC1(C)C2CC=C(C)C1C2 (stereo not drawn) [Material 720]
DEFHJKL | CC1=CCCC2(C)CCC(=C(C)C)CC12 (stereo not drawn) [Material 1031]
DEFHJKL | CC(C)=CCCC(C)C12CC=C(C)C1C2 (stereo not drawn) [Material 926]
CEFHJK | CCCOC(C)OCCc1ccccc1 (stereo not drawn) [Material 766]
DEFHJK | CCCC(=O)OCCc1ccccc1 [Material 831]
BDEFHJK | C=CC(C)(CCC=C(C)C)OC(C)OCC (stereo not drawn) [Material 916]
BDEFHJK | C=C1CCCC(C)(C)C2C=C(C)CCC12 (stereo not drawn) [Material 707]

Same assay, conditions: cell strings several class symbols together; each letter is one property class of L1

Structure (SMILES) | Comment Code
CC1C(C)(C)C2CCC3CC(C)(C)OC3C2C1(C)C (stereo not drawn) [Material 679] | DEFHJK
CC(OC=O)C1CCCC(C)(C)C1 (stereo not drawn) [Material 662] | ADEFHIJKL
CCOC(=O)OC1CCCCC1C(C)(C)C (stereo not drawn) [Material 365] | ACFHIKL
C=CC(C)(CCC=C(C)C)OC(C)=O (stereo not drawn) [Material 154] | BDHJK
COc1ccc(COC=O)cc1 [Material 665] | BCEFGK
CC(C)=CCCC(C)CCO (stereo not drawn) [Material 517] | BCHIJKL
CCCCOC(=O)c1ccccc1C(=O)OCCCC [Material 455] | DEFHJ
CC(=O)OC1CC2CC1C1CCCC21 (stereo not drawn) [Material 441] | DEFHJKL
COC(Cc1ccccc1)OC [Material 627] | DHJK
CCCCCC1CCCC1=O (stereo not drawn) [Material 469] | BDFHIKL
COC(=O)Cc1ccccc1 [Material 97] | ACEFHIKL
N#CC=Cc1ccccc1 [Material 549] | ACEFGIK
CC1=CCC(C=CC(C)(C)C(C)O)C1(C)C (stereo not drawn) [Material 53] | CEFHJ
CC12CCC(C1)C(C)(C)C2O (stereo not drawn) [Material 366] | ACGIJKL
CC(C)=CCC/C(C)=C/COC(=O)c1ccccc1 [Material 310] | DFHJ
C=CC(C)(CCC=C(C)C)OC(=O)CCC (stereo not drawn) [Material 151] | BDEFHJK
CC1=CC(C)C2C(CCC(C)(C)C2O)C1 (stereo not drawn) [Material 39] | DEFHIJK
CCCCCOC(=O)c1ccccc1 [Material 672] | DEFHJK
CCC(C)(O)/C=C/C=C(C)C (stereo not drawn) [Material 81] | BCEFGIJK
COc1ccc(COC(C)=O)cc1 [Material 664] | BCEFGK
CC/C=C\CCOC(=O)CC [Material 538] | ACEFHIKL
CC1=CCC(CC#N)C1(C)C (stereo not drawn) [Material 585] | ACGIJKL
C/C=C1/CC2CC1C1CCC(=O)OC21 (stereo not drawn) [Material 353] | CEFGJK
CC/C=C\CCOC(=O)CCC [Material 540] | ADEFHJKL
C/C=C(\C)C(=O)OCC/C=C\CC [Material 536] | BDEFHJK
CC=CCOCC/C=C\CC [Material 19] | ADEFHJKL
CCCCCCCC(=O)OCCC(C)C [Material 237] | DEFHJK
CC(=O)OC(C)(C)C1CC=C(C)CC1 (stereo not drawn) [Material 687] | BDHJK
CC(C)=CCCC(C)CCOC(=O)Cc1ccccc1 (stereo not drawn) [Material 510] | DFHJ

More lines, now with the values ahead:

Comment Code | Structure (SMILES)
ADEFGIJKL | CC(C)C12CCC(C)(O)C1C2 (stereo not drawn) [Material 1019]
ACEFHIK | C=C(OC(C)=O)c1ccccc1 [Material 931]
DEFHJK | C[C@@H]1CCC=C2CC[C@@H](C(C)(C)O)C[C@]21C [Material 1107]
ACEFHIKL | CCC=CCCO [Material 817]
ACEFGIKL | CCC(C)C(=O)OC (stereo not drawn) [Material 904]
DEFHJK | CC1=CC[C@@H]2[C@@]3(C)CCCC(C)(C)[C@@H]3CC[C@@]2(C)O1 [Material 1029]
DEFHJ | COC(=O)c1ccccc1/N=C\C1CCC(C)=CC1C (stereo not drawn) [Material 1131]
ACHIJKL | CC(C)=CCCC(C)CC=O (stereo not drawn) [Material 889]
ACEFHIKL | CCCC=CCO [Material 851]
DEFHJK | CC1=CC[C@@H]2C3CC([C@@H]2C1)[C@@]1(C3)OC1C (stereo partly drawn) [Material 1007]
ADEFHKL | C=C(C)COCC/C=C\CC [Material 1141]
BCEFGIJKL | CC/C(CC(C)CC)=N/O (stereo not drawn) [Material 1040]
BCEFGIK | CCC(C)c1nccnc1OC (stereo not drawn) [Material 845]
CHJK | COC1CC2CC1C1CC(C=O)CC21 (stereo not drawn) [Material 1027]
ACEFHIKL | CCC/C=C/CO [Material 1069]
DHJ | Cc1cc2c(cc1C#N)C(C)(C)C(C)C(C)C2(C)C (stereo not drawn) [Material 1142]
ADGIJKL | Cc1ccc(C(C)C)cc1 [Material 940]
BDEFGIJKL | CC(C)CCCC(C)CCO (stereo not drawn) [Material 820]
DEFHJK | CC(C)(C)C(=O)OC1CC2CC1C1CC=CC21 (stereo not drawn) [Material 978]
ACGIJKL | C=C(C)[C@@H]1CC[C@@H](C)C(=O)C1 [Material 1081]
DEFGJK | O=C1CCCC=CCCCCCCCCCC1 [Material 788]
BDHJK | CC(C)(C)c1ccc(CC=O)cc1 [Material 994]

Same assay, conditions: letter codes A-L: vapor pressure, ClogP, probability of ingredient color instability, odor detection threshold, PMC headspace response ratio, PMC leakage, liquid dish liquid-air partition coefficient; Table 1 materials with at least one MORV from 1 to 5

Structure (SMILES) | Comment Code
COC(=O)c1ccccc1/N=C\C1CCC(C)=CC1C (stereo not drawn) [Material 1131] | DEFHJ
CC(C=O)=CCC1C(C)=CCCC1(C)C (stereo not drawn) [Material 1116] | BDFHJK
Cc1cc2c(cc1C#N)C(C)(C)C(C)C(C)C2(C)C (stereo not drawn) [Material 1142] | DHJ
